Earlier results on 2 compounds are cited in US6284845A, “Low temperature cure carboxyl terminated polyesters” (McWhorter Technologies, priority 1999, dated 2001).

Each structure is given as a SMILES string.

Data set [1] concerns rabbit.
In data set [2] the test system is rabbit. This is another data set of the same source.

In the case of `CC(O)CN(CC(C)O)C(=O)CCCCC(=O)N(CC(C)O)CC(C)O` (stereo not drawn) [Primid QM-1260, N,N,N',N'-Tetrakis (2-hydroxypropyl) adipamide], the “Acute oral toxicity LD50” value in the data set with rat is on record as more than 2000 mg/kg. In addition, the Primary eye irritation result in the data set with rabbit [1] is listed as “not irritating”. For the same compound, in the data set with rabbit [2], the Primary skin irritation entry is given as “not irritating”.

As for `O=C(CCCCC(=O)N(CCO)CCO)N(CCO)CCO` [Primid XL-552, N,N,N',N'-Tetrakis (2-hydroxyethyl) adipamide], the Primary skin irritation entry in the data set on guinea pig was “not irritating”. In addition, the “Acute oral toxicity LD50” value in the data set on rat was more than 5000 mg/kg. Moreover, in the data set on rabbit [1], the Primary eye irritation result is on record as “not irritating”.
